What was measured:
[1] = Maximum plasma concentration in rat after peroral administration of 10 mg/kg dose of compound; format: ADME, organism-based; set-up: dose 10 mg/kg, route oral; details: po
[2] = Plasma half-life ([…] mg/kg) in rat after intravenous administration; format: ADME, organism-based; details: 10 mg/kg
[3] = Maximum plasma concentration in dog after administration of 1 mg/kg dose of compound; format: ADME, organism-based, Canis lupus familiaris; set-up: dose 1 mg/kg
Serine protease 1 = Serine protease 1 (Homo sapiens, UniProt P07477); assay: Inhibitory constant against human trypsin
[4] = Oral bioavailability in Rhesus monkey (dose 5 mg/kg); format: ADME, organism-based, Macaca mulatta; details: in vivo
[5] = Maximum plasma concentration in rhesus monkey after peroral administration of 5 mg/kg dose of compound; format: ADME, organism-based, Macaca mulatta; set-up: dose 5 mg/kg, route oral; details: po
[6] = Plasma half-life (5 mg/kg) in rhesus monkey after intravenous administration; format: ADME, organism-based, Macaca mulatta
[7] = Maximum plasma concentration in dog after peroral administration of 1 mg/kg dose of compound; format: ADME, organism-based, Canis lupus familiaris; set-up: dose 1 mg/kg, route oral; details: po
[8] = Concentration required to double the activated partial thromboplastin time (2x APTT) in human plasma; format: functional
[9] = Plasma half-life in dog after peroral administration was evaluated; format: ADME, organism-based, Canis lupus familiaris; details: plasma, po
in vivo = details: dog, iv, 1 mg/kg
[10] = Oral bioavailability in rat (dose 10 mg/kg); format: ADME, organism-based; details: in vivo
[11] = Oral bioavailability in dog after administration of 1 mg/kg of compound; format: ADME, organism-based, Canis lupus familiaris; details: in vivo
Prothrombin = Prothrombin (Homo sapiens, UniProt P00734); assay: Inhibitory constant against thrombin (IIa)

Serine protease 1, sequence (P07477 whole entry): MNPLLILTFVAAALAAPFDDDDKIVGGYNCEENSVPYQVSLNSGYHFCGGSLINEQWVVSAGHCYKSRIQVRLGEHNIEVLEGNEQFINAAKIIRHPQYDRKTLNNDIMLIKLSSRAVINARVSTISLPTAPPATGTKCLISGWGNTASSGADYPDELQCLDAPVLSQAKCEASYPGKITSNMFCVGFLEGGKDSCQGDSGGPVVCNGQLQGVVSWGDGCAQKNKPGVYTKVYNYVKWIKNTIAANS

Work on `Cc1cnc(NCC(F)(F)c2ccccn2)c(=O)n1CC(=O)NCc1ncccc1F` yielded a Cmax [1] of 2160 nM, a half-life [2] of 0.57 h and a Cmax [3] of 5640 nM. For the same compound, the Ki (Serine protease 1) was 252 µM, the bioavailability [4] was 12% and the Cmax [5] was 1100 nM. The half-life [6] was 0.99 h, the Cmax [7] was 5640 nM and the “2x aPTT” value [8] was 0.67 µM. For the same compound, the half-life [9] was 3.5 h, the half-life (in vivo) was 3.5 h and the bioavailability [10] was 55%. It also gave a bioavailability [11] of 87%.

In the case of `O=C(Cn1c(C(F)(F)F)cnc(NCC(F)(F)c2ccccn2)c1=O)NCc1ncccc1F`, the Ki (Serine protease 1) is reported as 136 µM and the Ki (Prothrombin) is reported as 0.044 µM.

In the case of `Cc1ccnc(CNC(=O)Cn2c(C)cnc(NCC(F)(F)c3ccccc3)c2=O)c1`, the Ki (Serine protease 1) is reported as 270 µM, the “2x aPTT” value [8] is reported as 1.7 µM and the Ki (Prothrombin) is reported as 0.0048 µM.

For `Cc1ccnc(CNC(=O)Cn2c(C)cnc(NCC(F)(F)c3ccccn3)c2=O)c1`, the Cmax [3] was 4120 nM, the Ki (Serine protease 1) was 431 µM and the “2x aPTT” value [8] was 0.59 µM. It also gave a half-life [9] of 2.4 h and a Ki (Prothrombin) of 0.0028 µM.

In the case of `Cc1ccnc(CNC(=O)Cn2c(Cl)cnc(NCC(F)(F)c3ccccn3)c2=O)c1F`, the Cmax [3] is reported as 670 nM, the Ki (Serine protease 1) is reported as 80 µM and the “2x aPTT” value [8] is reported as 0.48 µM. The half-life [9] was 3.2 h and the Ki (Prothrombin) was 0.0009 µM.

For `Cc1ccnc(CNC(=O)Cn2c(Cl)cnc(NCC(F)(F)c3ccccn3)c2=O)c1`, the Cmax [3] was 2320 nM, the Ki (Serine protease 1) was 429 µM and the “2x aPTT” value [8] was 0.91 µM. For the same compound, the half-life [9] was 2.1 h and the Ki (Prothrombin) was 0.0053 µM.

`Cc1nc(N)ccc1CNC(=O)Cn1c(C)cnc(NCC(F)(F)c2ccccc2)c1=O` gave a Ki (Serine protease 1) of 0.855 µM.

For `Cc1nc(N)ccc1CNC(=O)Cn1c(C)cnc(NCC(C)c2ccccc2)c1=O` (stereo not given), the Ki (Serine protease 1) was 1.6 µM, the “2x aPTT” value [8] was 0.61 µM and the Ki (Prothrombin) was 0.0011 µM.

`O=C(Cn1ccnc(NCC(F)(F)c2ccccn2)c1=O)NCc1ncccc1F` showed a Ki (Serine protease 1) of over 1000 µM and a Ki (Prothrombin) of 0.14 µM.

For `O=C(Cn1c(Cl)cnc(NCC(F)(F)c2ccccn2)c1=O)NCc1ncccc1Cl`, the Cmax [3] was 62 nM, the Ki (Serine protease 1) was 567 µM and the “2x aPTT” value [8] was 1.41 µM. It also gave a half-life [9] of 5.7 h and a Ki (Prothrombin) of 0.0079 µM.

In the case of `Cc1nc(N)ccc1CNC(=O)Cn1c(C)cnc(NCCc2cccnc2)c1=O`, the Ki (Serine protease 1) is reported as 3.8 µM, the “2x aPTT” value [8] is reported as 0.28 µM and the Ki (Prothrombin) is reported as 0.00054 µM.

In the case of `N#Cc1cnc(NCC(F)(F)c2ccccn2)c(=O)n1CC(=O)NCc1ncccc1F`, the Cmax [3] is reported as 1170 nM, the Ki (Serine protease 1) is reported as 213 µM and the “2x aPTT” value [8] is reported as 0.41 µM. It also gave a half-life [9] of 9.7 h and a Ki (Prothrombin) of 0.0023 µM.

`Cc1cnc(NCCc2ccccc2)c(=O)n1CC(=O)NCc1ccccn1` showed a Ki (Serine protease 1) of over 1000 µM and a Ki (Prothrombin) of 0.39 µM.

In the case of `Cc1nc(N)ccc1CNC(=O)Cn1c(C)cnc(NCCc2ccccn2)c1=O`, the Ki (Serine protease 1) is reported as 3.6 µM, the “2x aPTT” value [8] is reported as 0.31 µM and the Ki (Prothrombin) is reported as 0.00027 µM.

With `Cc1nc(N)ccc1CNC(=O)Cn1c(C)cnc(NCC(C)(C)c2ccccc2)c1=O` the Ki (Serine protease 1) was 0.8 µM, the “2x aPTT” value [8] was 0.5 µM and the Ki (Prothrombin) was 0.0011 µM.

Source: ChEMBL document CHEMBL1145961, “Metabolism-directed optimization of 3-aminopyrazinone acetamide thrombin inhibitors. Development of an orally bioavailable series containing P1 and P3 pyridines” (J Med Chem, 2003)
